# Experiments:
# Conditions in all cases: 72 h
# Calu-3 [1] = experiment: relative viability EC50 (midpoint between 100% and the lowest measured viability); higher = less toxic
# Caco-2 [2] = experiment: as above
# U2OS [3] = experiment: as above
# HepG2 [4] = experiment: as above
# Calu-3 [5] = experiment: drug sensitivity score (DSS) for viability; higher = more toxic; extreme values may be limits of the assay
# Caco-2 [6] = experiment: as above
# U2OS [7] = experiment: as above
# HepG2 [8] = experiment: as above
# Calu-3 [9] = experiment: cell viability relative to DMSO; higher = less toxic
# Caco-2 [10] = experiment: as above
# U2OS [11] = experiment: as above
# HepG2 [12] = experiment: as above
# Vero E6 [13] = experiment: drug sensitivity score (DSS) for viability; higher = more toxic; extreme values may be limits of the assay
# Vero E6 [14] = experiment: cell viability relative to DMSO; higher = less toxic
# Vero E6 [15] = experiment: relative viability EC50 (midpoint between 100% and the lowest measured viability); higher = less toxic
SMILES,relative viability EC50 (Calu-3 [1]),relative viability EC50 (Caco-2 [2]),relative viability EC50 (U2OS [3]),relative viability EC50 (HepG2 [4]),drug sensitivity score (Calu-3 [5]),drug sensitivity score (Caco-2 [6]),drug sensitivity score (U2OS [7]),drug sensitivity score (HepG2 [8]),cell viability (Calu-3 [9]; 1 nM),cell viability (Calu-3 [9]; 10 nM),cell viability (Calu-3 [9]; 100 nM),cell viability (Calu-3 [9]; 1000 nM),cell viability (Calu-3 [9]; 10000 nM),cell viability (Caco-2 [10]; 1 nM),cell viability (Caco-2 [10]; 10 nM),cell viability (Caco-2 [10]; 100 nM),cell viability (Caco-2 [10]; 1000 nM),cell viability (Caco-2 [10]; 10000 nM),cell viability (U2OS [11]; 1 nM),cell viability (U2OS [11]; 10 nM),cell viability (U2OS [11]; 100 nM),cell viability (U2OS [11]; 1000 nM),cell viability (U2OS [11]; 10000 nM),cell viability (HepG2 [12]; 1 nM),cell viability (HepG2 [12]; 10 nM),cell viability (HepG2 [12]; 100 nM),cell viability (HepG2 [12]; 1000 nM),cell viability (HepG2 [12]; 10000 nM),drug sensitivity score (Vero E6 [13]),cell viability (Vero E6 [14]; 1 nM),cell viability (Vero E6 [14]; 10 nM),cell viability (Vero E6 [14]; 100 nM),cell viability (Vero E6 [14]; 1000 nM),cell viability (Vero E6 [14]; 10000 nM),relative viability EC50 (Vero E6 [15])
CCN(CCCCOC(=O)c1ccc(OC)c(OC)c1)C(C)Cc1ccc(OC)cc1 (stereo unspecified) [mebeverine],> 10 µM,> 10 µM,> 10 µM,> 10 µM,0,0.6,0,0,95.2%,98.3%,101%,100%,93.8%,101%,96.3%,97.2%,90.8%,83.8%,102%,99.4%,99.1%,102%,96.3%,105%,112%,100%,103%,91.6%,–,–,–,–,–,–,–
Sc1ncnc2nc[nH]c12 [mercaptopurine],> 10 µM,> 10 µM,–,1.23 µM,0,3.1,5.6,8.7,113%,91%,94.3%,90.8%,106%,110%,103%,109%,77%,89.6%,102%,101%,93.4%,71%,65.1%,112%,115%,107%,69.7%,18.8%,1.1,103%,104%,99.5%,103%,70.6%,–
COc1ccc(C2=N[C@@H](c3ccc(Cl)cc3)[C@@H](c3ccc(Cl)cc3)N2C(=O)N2CCNC(=O)C2)c(OC(C)C)c1 [nutlin-3],> 10 µM,> 10 µM,> 10 µM,1.95 µM,0,0,1.1,5.3,91.6%,98.1%,89.7%,92.4%,108%,94.2%,92.1%,92.5%,97.9%,89.1%,94.7%,93.6%,95.3%,98.7%,75.2%,104%,115%,109%,89.7%,35%,2.1,106%,98.9%,94.5%,97.5%,63.7%,–
CCC(CC)[C@H](NC(C)=O)[C@@H]1[C@H](O)[C@@H](C(=O)O)C[C@H]1NC(=N)N [peramivir],> 10 µM,> 10 µM,> 10 µM,> 10 µM,0,0,0,0,93.3%,98.3%,98.1%,107%,101%,98.8%,101%,104%,105%,102%,103%,110%,98.9%,110%,104%,110%,98.6%,102%,110%,98.9%,–,–,–,–,–,–,–
NNCCc1ccccc1 [phenelzine],–,> 10 µM,> 10 µM,> 10 µM,–,1.4,0,0,–,–,–,–,–,88.4%,100%,93.4%,92.6%,75.1%,98.4%,98.7%,94.6%,99.8%,95.1%,109%,92.8%,84.1%,120%,91.4%,0,105%,103%,101%,90.3%,98%,> 10 µM
NC(=O)CN1CC(c2ccccc2)CC1=O (stereo unspecified) [phenylpiracetam],> 10 µM,> 10 µM,> 10 µM,> 10 µM,0,0,0,0,103%,97.3%,99.5%,98.5%,91.7%,104%,103%,93.1%,102%,91.8%,99.3%,102%,98.1%,102%,98.1%,112%,107%,104%,94%,104%,–,–,–,–,–,–,–
CC(C)(C)NC(=O)[C@@H]1C[C@@H]2CCCC[C@@H]2CN1C[C@@H](O)[C@H](Cc1ccccc1)NC(=O)[C@H](CC(N)=O)NC(=O)c1ccc2ccccc2n1 [saquinavir],> 10 µM,–,> 10 µM,> 10 µM,0,1.9,0,1,96.8%,104%,93.2%,102%,109%,101%,87.9%,95.7%,90.4%,72.4%,101%,101%,100%,103%,89.8%,91.8%,90.1%,100%,82.2%,84.3%,0,103%,101%,104%,85.1%,101%,> 10 µM
CC(C)N(CCCCOCC(=O)NS(C)(=O)=O)c1cnc(-c2ccccc2)c(-c2ccccc2)n1 [selexipag],> 10 µM,> 10 µM,–,–,0,0,–,–,95%,105%,97.3%,110%,105%,110%,103%,94.5%,107%,105%,–,–,–,–,–,–,–,–,–,–,0,100%,102%,93%,98.4%,93.2%,> 10 µM
CC1=CC[C@@H](C(C)(C)O)C[C@@H]1O [sobrepin],–,> 10 µM,–,> 10 µM,–,0,–,0,–,–,–,–,–,109%,121%,94.4%,103%,87.9%,–,–,–,–,–,109%,99.6%,114%,103%,110%,0,98%,99.7%,96.3%,98.1%,90.7%,> 10 µM
O=S(=O)(O)Oc1ccc(C(c2ccc(OS(=O)(=O)O)cc2)c2ccccn2)cc1 [sodium-picosulfate],> 10 µM,> 10 µM,> 10 µM,–,0,0,0,–,87.6%,95%,82.2%,100%,93.8%,88.4%,102%,96.3%,102%,106%,102%,106%,97.1%,104%,99.1%,–,–,–,–,–,–,–,–,–,–,–,–
O=C(OC[C@H]1O[C@@H](OC(=O)c2cc(O)c(O)c(OC(=O)c3cc(O)c(O)c(O)c3)c2)[C@H](OC(=O)c2cc(O)c(O)c(OC(=O)c3cc(O)c(O)c(O)c3)c2)[C@@H](OC(=O)c2cc(O)c(O)c(OC(=O)c3cc(O)c(O)c(O)c3)c2)[C@@H]1OC(=O)c1cc(O)c(O)c(OC(=O)c2cc(O)c(O)c(O)c2)c1)c1cc(O)c(O)c(OC(=O)c2cc(O)c(O)c(O)c2)c1 [tannic-acid],> 10 µM,3.04 µM,–,–,0.4,3.2,2.7,0.8,94.4%,99.9%,98.6%,108%,78.8%,99.6%,93.5%,90.5%,99.1%,43.5%,97.7%,98.5%,93.7%,97.8%,53.1%,108%,94.6%,104%,104%,74.2%,5.7,103%,109%,102%,77.4%,48.8%,1.1 µM
c1cnc(SCc2cccnc2)nc1 [tasuldine],–,> 10 µM,> 10 µM,> 10 µM,–,0,0,0,–,–,–,–,–,96.5%,96.9%,101%,94.8%,101%,101%,96.3%,101%,94.3%,99.9%,105%,105%,105%,106%,97.9%,0,105%,98.5%,96.7%,102%,99.7%,> 10 µM
CC(C)OC(=O)[C@H](C)N[P@](=O)(CO[C@H](C)Cn1cnc2c(N)ncnc21)Oc1ccccc1 [tenofovir-alafenamide],> 10 µM,> 10 µM,> 10 µM,1.75 µM,0.5,0,0,4.8,106%,97.4%,112%,104%,78.9%,99.3%,100%,98.2%,108%,94.3%,99.4%,102%,97.4%,100%,95.6%,98.8%,91.9%,116%,89%,44.6%,–,–,–,–,–,–,–
S=C(NCCc1ccccn1)Nc1ccc(Br)cn1 [trovirdine],> 10 µM,> 10 µM,> 10 µM,> 10 µM,0,0,0,0,89.2%,96.2%,101%,102%,108%,94.9%,91.6%,98.4%,90%,98.1%,104%,100%,98.4%,104%,98.7%,103%,105%,102%,106%,92.1%,–,–,–,–,–,–,–
CCCC(CCC)C(=O)NCC(N)=O [valrocemide],–,> 10 µM,> 10 µM,> 10 µM,–,0,0,0,–,–,–,–,–,95.6%,94.1%,91.5%,90.9%,97.6%,104%,101%,97.7%,104%,98.9%,94.6%,101%,95.6%,102%,101%,0,97.3%,104%,104%,97.8%,101%,> 10 µM

# Source: the supplement of paper PMC13380429
